Laboratory results reported in patent US20260217767A1, “NOVEL A4B7 THIOETHER PEPTIDE DIMER ANTAGONISTS” (Protagonist Therapeutics, Inc., priority 2014, published 2026).
Where a SMILES comes first, the peptide text is derived from it.

Legend:
[1] = test system: CD4+/CD45RO+ memory T cells; assay: PBMC Memory T Cell Adhesion Assay; type: cell-based, human
Experimental: PBMC Memory T Cell Adhesion Assay
Fresh CD4+/CD45RO+ memory T cells were isolated from human peripheral blood mononuclear cell (PBMC) donors by Aragen Bioscience Inc. (Morgan Hill, CA). The assay plate was prepared using IgG Fc capture antibody (donkey anti human) immobilized at 500 ng/well in 50 mM sodium bicarbonate buffer, pH 9.5, ON, 4 C onto a Greiner Fluotrac plate (100 ul per well). The plate was rinsed two time with Blocking Buffer (25 mM Tris HCl, pH7.5, 150 mM NaCl, 1.5% BSA, 0.05% Tween), and blocked with Blocking Buffer for 2 hours at 37 C or 5 hours at RT using 200 ul per well. The Blocking Buffer was removed and either MAdCAM-1 or VCAM-1 at 400 ng/well in Blocking Buffer was added and the plate incubated overnight at 4 C (100 ul per well). The plate was washed two times with Blocking Buffer, and rinsed once with 200 ul Binding Media (DMEM phenol red free, 10 mM HEPES, 1×Na pyruvate, 1× Glutamine, and supplemented with 1 mM MnC12 prior to use). To prepare cells, approximately 25 million CD4+/CD45RO+ memory T cells were counted by trypan blue exclusion using a haemocytometer to determine viability and cell count. The cells were transferred to a 50 ml conical tube, and centrifuged at 1200 rpm for 10 minute. The media was aspirated and the cell pellet resuspended in 15 ml Binding Media. The cells were centrifuged again and resuspended in the appropriate amount of Binding Media to be used for assays (50 ul of cells per well at 2× the final density). To each well, and equal volume (50 ul) of test compound was added and the plate was incubated for 1.5 hours at 37 C, 5% CO2. Each well was rinsed 3× with 150 ul per well of Binding Media. […] The plate was incubated at 37 C, 5% CO2, for 45 minutes. The plate was protected from light by using black adhesive seals. Fluorescence intensity was measured using a Molecular Devices Gemini EM Fluorescent Plate Reader (Ex 485/Em530, Bottom Read, Reading Sensitivity=20). IC50 curves are generated using Graph Pad Prism and the curves analyzed using analyzed using a non-linear regression (four parameters) algorithm. The log (concentration) versus RFU (Ex485/Em530) was plotted to determine IC50 values.

[2] = Simulated Intestinal Fluid (SIF) Stability Assay; type: in vitro ADME; settings: simulated gi fluid, porcine pancreatin
How it was run: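 Peptide at 22 μM final was incubated at 37° C in blank FaSSIF pH 6.5 with 1% porcine pancreatin. Timed samples were quenched in acetonitrile/methanol/formic acid with internal standard and analysed by LC-MS/MS. Half-lives came from first-order exponential fits of percent remaining.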

[3] = Simulated Gastric Fluid (SGF) Stability Assay; type: in vitro ADME; settings: simulated gi fluid; porcine pepsin, pH 2, 37° C.; dimers, Table 7
Experimental: Simulated Gastric Fluid (SGF) Stability Assays
Studies were carried out in simulated gastric fluid (SGF) to evaluate intestinal stability of the peptide molecules of the instant invention. SGF was prepared by adding 20 mg NaCl, 32 mg porcine pepsin (MP Biochemicals, catalog 02102599), and 70 μl HCl to 10 ml water (final pH=2). Aliquots of SGF (0.5 ml each) were pre-warmed at 37° C. To start the reaction, 1 μl of peptide stock solution (10 mM in DMSO) was added to 0.5 ml SGF and thoroughly mixed such that the final peptide concentration was 20 μM. The reactions were incubated at 37° C. with gentle shaking. At each time point (0, 15, 30, 60 min) 50 μl aliquots were removed and added to 200 μl acetonitrile containing 0.1% formic acid to quench the reaction. Samples are stored at 4° C. until the end of the experiment and centrifuged at 10,000 rpm for 5 minutes. Aliquots of the supernatant were removed, diluted 1:1 into distilled water containing internal standard, and analyzed by LCMS/MS. Percent remaining at each timepoint was calculated based on the peak area response ratio of test to compound to internal standard. Time 0 was set to 100%, and all later timepoints were calculated relative to time 0. Half-lives were calculated by fitting to a first-order exponential decay equation using GraphPad.

RPMI 8866 cells = target: T1, RPMI 8866 cells (Homo sapiens, UniProt P13612+P26010); assay: α4β7-MAdCAM Cell Adhesion Assay; type: cell-based; settings: thioether peptide dimers, Table 7; read-out: Cell-Adhesion A4B7
T1 sequence (P13612 34-1032): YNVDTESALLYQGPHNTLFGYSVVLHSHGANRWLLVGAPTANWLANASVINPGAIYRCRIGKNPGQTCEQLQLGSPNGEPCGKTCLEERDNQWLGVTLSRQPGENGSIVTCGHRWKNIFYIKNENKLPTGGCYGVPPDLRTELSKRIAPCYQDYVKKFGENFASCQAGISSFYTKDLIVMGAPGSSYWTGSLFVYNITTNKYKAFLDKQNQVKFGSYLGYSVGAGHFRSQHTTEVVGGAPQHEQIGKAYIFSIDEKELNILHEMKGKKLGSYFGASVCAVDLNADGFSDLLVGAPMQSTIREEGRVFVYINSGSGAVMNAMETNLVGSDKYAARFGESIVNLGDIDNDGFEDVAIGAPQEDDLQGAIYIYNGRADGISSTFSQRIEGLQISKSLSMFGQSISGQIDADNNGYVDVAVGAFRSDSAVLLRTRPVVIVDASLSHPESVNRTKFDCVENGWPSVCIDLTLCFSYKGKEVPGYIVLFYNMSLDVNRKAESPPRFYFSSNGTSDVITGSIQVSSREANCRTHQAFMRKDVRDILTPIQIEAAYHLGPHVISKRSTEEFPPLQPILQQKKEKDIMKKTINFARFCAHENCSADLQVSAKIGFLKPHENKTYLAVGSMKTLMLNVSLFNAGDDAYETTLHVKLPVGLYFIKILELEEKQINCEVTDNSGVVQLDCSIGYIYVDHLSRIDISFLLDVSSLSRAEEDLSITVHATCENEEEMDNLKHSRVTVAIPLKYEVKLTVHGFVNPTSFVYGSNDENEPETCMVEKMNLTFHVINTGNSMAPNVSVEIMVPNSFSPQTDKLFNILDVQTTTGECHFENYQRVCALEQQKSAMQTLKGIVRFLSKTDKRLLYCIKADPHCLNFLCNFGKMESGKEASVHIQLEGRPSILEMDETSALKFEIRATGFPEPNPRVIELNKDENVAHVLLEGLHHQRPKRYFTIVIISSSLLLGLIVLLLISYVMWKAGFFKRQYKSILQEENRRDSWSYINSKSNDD
T1 sequence (P26010 20-798): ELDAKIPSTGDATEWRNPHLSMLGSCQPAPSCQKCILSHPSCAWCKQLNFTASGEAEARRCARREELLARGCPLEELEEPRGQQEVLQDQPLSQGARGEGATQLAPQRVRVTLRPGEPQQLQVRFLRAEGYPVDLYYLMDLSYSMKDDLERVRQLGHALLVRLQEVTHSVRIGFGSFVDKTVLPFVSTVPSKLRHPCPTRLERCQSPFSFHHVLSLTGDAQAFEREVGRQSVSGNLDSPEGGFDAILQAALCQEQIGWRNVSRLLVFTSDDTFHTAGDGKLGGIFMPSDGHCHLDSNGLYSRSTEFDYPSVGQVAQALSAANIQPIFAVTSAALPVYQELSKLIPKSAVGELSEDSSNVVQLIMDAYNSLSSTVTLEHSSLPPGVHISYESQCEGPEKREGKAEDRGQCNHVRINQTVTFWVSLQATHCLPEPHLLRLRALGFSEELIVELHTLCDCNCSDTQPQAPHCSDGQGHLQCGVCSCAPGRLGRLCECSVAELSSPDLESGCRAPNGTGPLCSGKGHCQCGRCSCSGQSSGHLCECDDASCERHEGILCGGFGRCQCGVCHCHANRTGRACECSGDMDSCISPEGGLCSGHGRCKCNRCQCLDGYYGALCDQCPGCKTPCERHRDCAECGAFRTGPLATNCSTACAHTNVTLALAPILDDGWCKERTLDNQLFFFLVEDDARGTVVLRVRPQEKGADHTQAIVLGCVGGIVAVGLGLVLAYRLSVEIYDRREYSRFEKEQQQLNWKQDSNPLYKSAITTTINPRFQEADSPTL
How it was run: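 RPMI 8866 cells (200,000/well) in DMEM with 1 mM MnCl2 and 0.1% BSA were allowed to adhere 30-45 min at 37° C to plates coated with rh MAdCAM-1/Fc (200 ng/well) in presence of serially diluted peptide. After washing, bound cells quantified by MTT, absorbance 570 nm, cell-free background subtracted.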

[4] = Dithiothreitol (DTT) Redox Stability Assay; type: physicochemical; settings: 0.5 mM DTT, room temperature; control peptide monomers, Table 8
Experimental: Studies were carried out under redox conditions to evaluate intestinal stability of the peptide molecules of the instant invention.
Dithiothreitol (DTT) Redox Stability Assay
The DTT stability assay was prepared by adding 5 μl of a 10 mM peptide stock solution in DMSO to 1 ml of 100 mM Tris-Cl, pH 7.5 (final peptide concentration is 50 μM). At time 0 min, 5 μl of a freshly thawed 100 mM DTT solution was added such that the final DTT concentration is 0.5 mM. The reactions were incubated at room temperature. At different time points up to 120 minutes, 50 μl aliquots were removed and the reaction was quenched by adding 10 ul of 5M acetic acid. To measure disappearance of the parent peptide, the quenched samples (30 μl) were analyzed by reverse phase HPLC and UV absorbance at 220 nm. Half-lives were calculated by fitting to a first-order exponential decay equation using Excel.

[5] = thioether peptide dimers, Table 7
[6] = control peptide monomers, Table 8

SMILES	IC50 [1, 5] [nM]	Redox stability (DTT) [4] [min]	half-life [2, 6] [h]	further results
CC(C)C[C@@H]1NC(=O)[C@H]([C@@H](C)O)NC(=O)[C@H](CC(=O)O)NC(=O)[C@H](CO)NC(=O)[C@H](CCCNC(=N)N)N(C)C(=O)c2ccccc2CSC(C)(C)[C@@H](C(=O)N[C@@H](Cc2c[nH]c3ccccc23)C(=O)N[C@H](CCC(=O)O)C(N)=O)NC1=O [compound 98] (HELM PEPTIDE1{[meR].S.D.T.L.[Pen].W.[dE].[am]}|CHEM1{[O=C(c1ccccc1C[*:2])[*:1]]}$PEPTIDE1,CHEM1,1:R1-1:R1|PEPTIDE1,CHEM1,6:R3-1:R2$$$V2.0)				IC50 ([1]; thioether monomer peptides, Table 6): 100 to 1000 nM
CC(C)C[C@@H]1NC(=O)[C@H]([C@@H](C)O)NC(=O)[C@H](CC(=O)O)NC(=O)[C@H](CO)NC(=O)[C@H](CCCNC(=N)N)N(C)C(=O)c2ccccc2CSC(C)(C)[C@@H](C(=O)N[C@@H](Cc2ccccc2)C(=O)N[C@H](CCC(=O)O)C(=O)N[C@H](CCCCN)C(N)=O)NC1=O [compound 155] (HELM PEPTIDE1{[meR].S.D.T.L.[Pen].F.[dE].[dK].[am]}|CHEM1{[O=C(c1ccccc1C[*:2])[*:1]]}$PEPTIDE1,CHEM1,1:R1-1:R1|PEPTIDE1,CHEM1,6:R3-1:R2$$$V2.0)	25 to 100			half-life ([2]; 37° C., dimers, Table 7): > 3 h; half-life [3]: > 3 h
CC(C)C[C@@H]1NC(=O)[C@H]([C@@H](C)O)NC(=O)[C@H](CC(=O)O)NC(=O)[C@H](CO)NC(=O)[C@H](CCCNC(=N)N)N(C)C(=O)c2ccccc2CSC(C)(C)[C@@H](C(=O)N[C@@H](Cc2ccc(C(C)(C)C)cc2)C(=O)N[C@@H](CCC(=O)O)CC(=O)N[C@H](CCCCN)C(N)=O)NC1=O [compound 222]	< 25			IC50 (RPMI 8866 cells): < 25 nM
CC(=O)N[C@H]1CSSC[C@@H](C(=O)NCC(=O)N[C@@H](CCC(=O)O)C(N)=O)NC(=O)[C@H](CC(C)C)NC(=O)[C@H]([C@@H](C)O)NC(=O)[C@H](CC(=O)O)NC(=O)[C@H](CO)NC(=O)[C@H](CCCNC(=N)N)NC1=O [compound 385] (HELM PEPTIDE1{[ac].C.R.S.D.T.L.C.G.E.[am]}$PEPTIDE1,PEPTIDE1,2:R3-8:R3$$$V2.0; bridges inferred)		~3	< 0.0167	
CC(=O)N[C@H]1CSSC[C@@H](C(N)=O)NC(=O)[C@H](CC(C)C)NC(=O)[C@H]([C@@H](C)O)NC(=O)[C@H](CC(=O)O)NC(=O)[C@H](CO)NC(=O)[C@H](CCCNC(=N)N)NC1=O [compound 386] (HELM PEPTIDE1{[ac].C.R.S.D.T.L.C.[am]}$PEPTIDE1,PEPTIDE1,2:R3-8:R3$$$V2.0; bridges inferred)		~3	< 0.0167	
